The results in this text go back to patent US10729636B2, “Compositions comprising peptide [sequence]” (NURITAS LIMITED, priority 2016, dated 2020).

Holding throughout (type): cell-based
The test system of experiment [1] is HACAT cells. The experiment in a line: Cell proliferation assay (BrDu), HACAT. The conditions noted are these: compared with untreated control, FIG. 2. The procedure: BrDu is incorporated into newly synthesised DNA strands of actively proliferating cells. Following partial denaturation of double stranded DNA, BrDu is detected immunochemically allowing the assessment of the population of cells which are synthesizing DNA.
Following the initial 24 h incubation the cells were incubated with 5 μg/ml, 0.5 μg/ml or 0.05 μg/ml synthetic peptide for 24 h respectively.
After 18 h incubation with synthetic peptides 20 μl BrDu reagent was added to each well. At 24 h incubation the cells were fixed and the amount of […] was measured using the BrdU Cell Proliferation Assay, all steps were carried out according to the manufacturer's instructions.
This experiment was then repeated using HACAT cells.

Experiment [2] deals with protein synthesis. The experiment is described as follows: Puromycin ELISA (protein synthesis). The settings on record: FIG. 10. From the text: Puromycin is an aminonucleoside antibiotic produced by the bacterium Streptomyces alboniger. It is a structural analogue of aminoacyl-transfer RNA and, as such, can be incorporated into elongating peptide chains via the formation of a peptide bond. However, whereas aminoacyl-tRNAs contain a hydrolyzable ester bond, puromycin hasn't it in the equivalent position. Thus, the binding of puromycin to a growing peptide chain prevents a new peptide bond from being formed with the next aminoacyl-tRNA. As a consequence, puromycin binding results in the termination of peptide elongation, and leads to the release of the truncated puromycin bound peptide from the ribosome. […] This later property makes puromycin a potential tool for the measurement of changes in protein synthesis rates.
1. Dispense […] Coating Buffer per well in the required number of wells in a 96 well ELISA plate. Dilute and mix the Protein extract (in the same buffer the sample is in) to […]. Immediately dispense 1 μl/well into plate.
2. Incubate the plate at 4° C. for 16-24 h.
3. Vigorously shake out contents. Wash 1× with 200 ul PBS.
4. Add 200 μl Blocking Solution (5% BSA in PBS). Incubate over the day 4-6 h at RT.
5. Dilute Puromycin antibody in Blocking solution and incubate overnight at 4° C.
8. Wash 2× with 200 ul PBS
9. […]
12. Add Stop solution and read the plate at 450 nm.
In general terms: An ELISA detects its analyte on a solid surface through an enzyme-linked reagent.

The test system of experiment [3] is AMPK pathway. The experiment is described as follows: Phospho-AMPK alpha / Phospho-ACC / Phospho-Akt1 ELISA (mechanism of action). The conditions noted are these: phospho-ELISAs on cell lysates; FIGS. 12-14. As for the experimental part:
This set of experiments was undertaken to understand the mechanism of action of a peptide of SEQ ID NO. 1.
Phospho-Acetyl-CoA Carboxylase (Ser79) Sandwich ELISA Kit is a solid phase sandwich enzyme-linked immunosorbent assay (ELISA) that detects endogenous levels of acetyl-CoA carboxylase (ACC) when phosphorylated at Ser79. A phospho-ACC (Ser79) rabbit antibody was coated onto the microwells. After incubation with cell lysates, phospho-ACC protein was captured by the coated antibody. Following extensive washing, an ACC mouse detection mAb was added to detect the captured ACC protein. Anti-mouse IgG, HRP-linked antibody was then used to recognize the bound detection antibody. […] The magnitude of the absorbance for the developed color was proportional to the quantity of ACC phosphorylated at Ser79.
Phospho-Akt1 (Ser473) Sandwich ELISA Kit is a solid phase sandwich enzyme-linked immunosorbent assay (ELISA) that detects endogenous levels of phospho-Akt1 (Ser473) protein. […] The magnitude of absorbance for this developed colour is proportional to the quantity of phospho-Akt1 (Ser473) protein.
Phospho-AMPKα (Thr172) Sandwich ELISA Kit is a solid phase sandwich enzyme-linked immunosorbent assay (ELISA) that detects endogenous levels of AMPKα when phosphorylated at Thr172. […] The magnitude of the absorbance for this developed colour was proportional to the quantity of AMPKα phosphorylated at Thr172. […]

For the sequence WKDEAGKPLVK [SEQ ID NO. 1], the cell proliferation result in experiment [1] was “increase”. Moreover, the protein synthesis result in experiment [2] was “increase”. In experiment [3], the “mechanism of action (pathway)” value is on record as “working through the AMPK pathway”.
